“Also recorded” adds a separate entry of the source. Where no end group is shown, it is not given here.
Columns and labels:
[1] = tested on: SSTR2 ECL2 mutants; test: BRET assays comparing SST14 and SST28 at ECL2 mutants; format: cell-based; settings: HEK-293S; for behavior of SST14 versus SST28 across ECL2 mutants: all of the mutants tested
[2] = tested on: SSTR1–5; settings: cited from earlier work
[3] = tested on: SSTR2 N276^6.55Q; test: BRET-based Gi3 activation assay, SSTR2 N276Q; format: cell-based; settings: HEK-293S
[4] = tested on: SSTR5; test: BRET-based Gi3 activation assay at SSTR5; format: cell-based; settings: HEK-293S, 10 min after ligand, n=3 biological replicates
[5] = tested on: SSTR4; test: BRET-based Gi3 activation assay at SSTR4; format: cell-based; settings: HEK-293S, 10 min after ligand, n=3 biological replicates
[6] = tested on: chimeric constructs of SSTR2 (ECL swaps); test: BRET-based Gi3 activation assay, SSTR2 ECL2/ECL3 chimeras; format: cell-based; settings: HEK-293S, n=3; for ligand recognition, effect of ECL swaps: nearly all ECL2/ECL3 swaps
[7] = tested on: SSTR2 Q187M; test: BRET-based Gi3 activation assay, SSTR2 Q187M; format: cell-based; settings: HEK-293S, n=3 biological replicates
[8] = tested on: SSTR3; test: BRET-based Gi3 activation assay at SSTR3; format: cell-based; settings: HEK-293S, 10 min after ligand, n=3 biological replicates
[9] = tested on: SSTR2 Q102^2.63S; test: BRET-based Gi3 activation assay, SSTR2 Q102S; format: cell-based; settings: HEK-293S
[10] = tested on: SSTR2; test: BRET-based G protein activation assay at SSTR2; format: cell-based; settings: HEK-293S, 10 min after ligand, n=3 biological replicates
[11] = tested on: SSTR2 R184 to proline mutant; test: BRET-based Gi3 activation assay, SSTR2 ECL2 mutant R184 to proline; format: cell-based; settings: HEK-293S
[12] = tested on: SSTR1; test: BRET-based Gi3 activation assay at SSTR1; format: cell-based; settings: HEK-293S, 10 min after ligand, n=3 biological replicates
[13] = tested on: SSTR2 R184 to alanine mutant; test: BRET-based Gi3 activation assay, SSTR2 ECL2 mutant R184 to alanine; format: cell-based; settings: HEK-293S
[14] = tested on: SSTR3 H192T; test: BRET-based Gi3 activation assay, SSTR3 H192T; format: cell-based; settings: HEK-293S
[15] = tested on: SSTR2 ECL2+/4 (entire ECL2 from SSTR4); test: BRET-based Gi3 activation assay, SSTR2 ECL2+/4 chimera; format: cell-based; settings: ECL2+/4 vs ECL2/4, HEK-293S, n=3
[16] = tested on: SSTR3 H192A; test: BRET-based Gi3 activation assay, SSTR3 H192A; format: cell-based; settings: HEK-293S

| Substance | strength of SST28 relative to SST14 ([1]; across all of the ECL2 mutants tested) | behavior of SST14 versus SST28 across ECL2 mutants [1] | subtype selectivity [2] | octreotide signaling (effect of mutation) [3] | Gi3 BRET activation response [4] | Gi3 BRET activation response [5] | ligand recognition, effect of ECL swaps [6] | octreotide signaling (effect of mutation) [7] | Gi3 BRET activation response [8] | octreotide-induced G protein signaling (effect of mutation) [9] | Gi3 BRET activation response [10] | SSTR2 activation (effect of mutation) [11] | Gi3 BRET activation response [12] | SSTR2 activation (effect of mutation) [13] | impairment by ECL swaps, SST14 versus octreotide ([6]; ECL swaps) | SST14-stimulated G protein activation (effect of mutation) [14] | SST14-induced signaling compared to the shorter SSTR4 ECL2 swap [15] | SST14-stimulated G protein activation (effect of mutation) [16] |
| --- | --- | --- | --- | --- | --- | --- | --- | --- | --- | --- | --- | --- | --- | --- | --- | --- | --- | --- |
| SST28: 28-residue somatostatin peptide (SANSNPAMAPRERKAGCKNFFWKTFTSC; ends and bridges not checked; cysteine pairing not given here) | slightly weaker binder than SST14 (less than an order of magnitude) | remarkably similar |  |  |  |  |  |  |  |  |  |  |  |  |  |  |  |  |
| lanreotide |  |  | SSTR2-selective |  |  |  |  |  |  |  |  |  |  |  |  |  |  |  |
| octreotide |  |  |  | decreases octreotide signaling in a selective manner | reduced response | almost no activity | impaired ligand recognition of SST14 and octreotide to some degree | enhances octreotide signaling | reduced response | selectively reduces octreotide-induced G protein signaling | activates SSTR2 most potently | substantially reduces SSTR2 activation | almost no activity | substantially reduces SSTR2 activation |  |  |  |  |
| SST14: endogenous 14-residue somatostatin peptide (Cayman, 20809) |  | remarkably similar |  |  | comparable response | comparable response | impaired ligand recognition of SST14 and octreotide to some degree; also recorded: non-linear effect on SST14-induced signaling |  | comparable response |  | comparable response | substantially reduces SSTR2 activation | comparable response | substantially reduces SSTR2 activation | far greater impairment for SST14 than octreotide | deleterious to SST14-stimulated G protein activation | improved SST14-induced signaling | deleterious to SST14-stimulated G protein activation |
